Like-named read-outs stand apart in the source and are kept apart here.
Experiments:
PLC-PRF-5 cells = assay: Inhibition of proliferation of PLC-PRF-5 cells (ATPlite); format: cell-based; conditions: Homo sapiens
Description: Inhibitory Activity of Compounds to the Proliferation of PLC-PRF-5 Cells
• [experimental Method]: Use PerKinElmer's ATPlite™ Luminescence ATP Detection Assay System to evaluate the inhibitory activity of compounds to the proliferation of PLC-PRF-5 cells. • [Instruments]: ENVISION plate reader (PerKinElmer) and centrifuge (Thermo Scientific, Sorvall ST16R) • [material]: PLC-PRF-5 cells (ATCC), 96-well plate (Nunc, #165305), DMEM medium (Gibco, #11965-092), PBS (Invitrogen, #10010023), fetal bovine serum (Gibco, #16000044), DMSO (Sigma, #D2650), ATPlite™ Luminescence ATP Detection Assay System (PerkinElmer, #6016949), purified water (Millipore, type: Milli-Q). • [Protocol]: Grow PLC-PRF-5 cells in DMEM supplemented with 10% FBS. When the cells reach 80% confluency, collect cells by trypsinization and centrifugation at 800 rpm for 3 min. Resuspend cells with appropriate volume of medium and count cell numbers. Adjust cell concentration to 50000 cells/mL, and split 160 μL cell suspension per well into 96-well plates. Transfer the plates into cell culture incubator (37° C., 5% CO2) and incubate cells for 2 hrs. Prepare compound serial dilutions in culture medium with total 8 compound concentrations at 3-fold serial dilutions (the final top concentration starts from 30 μM). Dispense 40 μL of each test compound dilution into corresponding wells with DMSO at 0.3% final concentration. Continue incubating cells in cell culture incubator for additional 96 hrs at 37° C., 5% CO2. Discard culture medium, and wash cells once with PBS. Add 50 μL cell lysis buffer per well and shake plates for 5 min at room temperature to ensure complete lysis of cells. Then add 50 μL of substrate solution and shake plates for 1 min at room temperature. Allow the plates to incubate at room temperature for 5 min, followed by recording the luminescence signals using Envision, and subsequent data analysis. • [Samples]: Compounds in the examples and Sorafenib (positive control) • [Data analysis]: Use CBIS data analysis software to calculate IC50 values

pERK in MDA-MB-231 cells = assay: Inhibitory activity at pERK (In Cell Western, MDA-MB-231 cells); format: cell-based; conditions: Homo sapiens
Method: Inhibitory Activity of Compounds at pERK
When the cells reach 80% confluency, collect cells by trypsinization and centrifugation at 800 rpm for 3 minutes. Resuspend cells with appropriate volume of medium and count cell numbers. Adjust cell concentration to 70000 cells/mL, and split 100 μL cell suspension per well into 96-well plates. Transfer the plates into cell culture incubator (37° C., 5% CO2) and incubate cells overnight. Discard the medium, wash with PBS once, Prepare compound serial dilutions in culture medium with total 8 compound concentrations at 3-fold serial dilutions (the final top concentration starts from 30 μM). Dispense 75 μL DMEM medium (with 0.1% BSA) and 25 μL of each test compound dilution into corresponding wells with DMSO at 0.3% final concentration. Continue incubating cells in cell culture incubator for additional 2 hrs at 37° C., 5% CO2. Discard culture medium, and wash cells once with PBS. Add 100 μL of 4% formaldehyde solution to each well and fix for 20 min. Discard the formaldehyde, then add 100 μL ice-cold 100% methanol at 4° C. for 20 min. Discard methanol, wash with PBS three times. Add to each well 100 μL of 2% BSA solution, seal for 30 min at room temperature. Discard the BSA solution, add to each well 50 μL of the 1st antibody solution (prepared with 2% BSA, 1:250 dilution), incubate at 4° C. overnight. Discard the 1^St antibody solution, wash with PBS four times. Add to each well […] the 2nd antibody solution (prepared with 1% BSA, 1:1000 dilution), incubate at room temperature for 1 hr. Discard the 2nd antibody solution, wash with PBS four times, add to each well 100 μL PI solution (1.5 μM), incubate at room temperature for 30 min. Use Acumen (TPP) to measure the fluorescence. • [Samples]: Compounds in the examples and sorafenib (positive control) • [Data Analysis]: Use CBIS data analysis software to calculate IC50 values

KDR kinase (790-1356 AA) = KDR kinase (790-1356 AA) (Homo sapiens (Human), UniProt P35968); assay: Inhibitory activity at KDR kinase (Lance Ultra Ulight-TK assay); format: biochemical
KDR kinase (790-1356 AA), sequence (P35968 790-1356): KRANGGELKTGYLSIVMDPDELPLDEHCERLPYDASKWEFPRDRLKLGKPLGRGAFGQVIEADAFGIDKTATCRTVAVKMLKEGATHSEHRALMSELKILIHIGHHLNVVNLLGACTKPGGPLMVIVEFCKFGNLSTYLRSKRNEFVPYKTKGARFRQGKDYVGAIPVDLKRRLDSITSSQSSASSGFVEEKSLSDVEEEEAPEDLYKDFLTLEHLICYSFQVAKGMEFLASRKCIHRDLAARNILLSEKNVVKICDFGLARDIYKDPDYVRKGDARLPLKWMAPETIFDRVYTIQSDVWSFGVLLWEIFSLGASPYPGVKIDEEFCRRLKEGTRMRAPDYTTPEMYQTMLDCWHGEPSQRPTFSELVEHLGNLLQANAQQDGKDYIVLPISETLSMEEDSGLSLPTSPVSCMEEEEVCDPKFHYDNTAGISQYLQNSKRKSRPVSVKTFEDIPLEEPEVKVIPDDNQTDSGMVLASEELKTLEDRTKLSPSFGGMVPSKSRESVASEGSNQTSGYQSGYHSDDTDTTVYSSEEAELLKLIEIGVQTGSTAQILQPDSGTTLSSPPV
Method: Inhibitory Activity of Compounds at KDR Kinase
• [Experimental method]: Use Lance@Ultra Ulight™-TK assay kit from PerKinElmer to evaluate the inhibitory activity of compounds at KDR kinase. • [Instrument]: PerKinElmer's ENVISION plate reader • [Materials]: Optiplate-384 well plate (PerKinElmer), kinase buffer (50 mM Hepes pH7.5, 0.25 mM EGTA, 2 mM DTT, 0.01% Tween 20, 10 mM Mg^2+, 0.5 mM Mn^2+), KDR kinase (790-1356 AA, Crown Bioscience), KDR kinase substrate (PerKinElmer catalogue # TRF0127-M), Lance@Eu-W1024-anti-phosphotyrosine (PT66) (PerKinElmer, catalogue #AD0068), ATP (Invitrogen), DMSO (Sigma, catalogue #34869), purified water (Millipore, type: Milli-Q). • [Study conditions]: Mix KDR (final concentration: 20 nM) and compound (final DMSO: 0.5%), pre-incubate for 20 min at 30° C.; then add ATP (final concentration: 90 μM) and the substrate (final concentration […]). React for 2 hrs at 30° C. After the reaction, add antibody and reaction for 60 min at 30° C. Read the plate (615 nm, 665 nm), calculate the ratio of the value at 665 nm vs 615 nm and analyze the data. • [Samples]: Compounds in the examples and Sorafenib (positive control) • [Data Analysis]: Use CBIS data analysis software to calculate IC50 values

[1] = PLC-PRF-5, PLC-PRF-5 cells, read-out: PLC-PRF-5 cell proliferation IC50
[2] = MDA-MB-231, MDA-MB-231 cells, read-out: MDA-MB-231 pERK IC50

| Structure (SMILES) | IC50 (pERK in MDA-MB-231 cells; [2]) | IC50 (KDR kinase (790-1356 AA)) | IC50 (PLC-PRF-5 cells; [1]) | IC50 (PLC-PRF-5 cells; PLC-PRF-5, read-out: PLC-PRF-5 cell proliferation IC50) | IC50 (pERK in MDA-MB-231 cells; MDA-MB-231, read-out: MDA-MB-231 pERK IC50) |
| --- | --- | --- | --- | --- | --- |
| O=C(Nc1cccc(C2CC2)c1)Nc1ccc(Oc2ccnc(NC(=O)C3CC3)c2)c(F)c1 [Exe. 057] | 85 nM | 12 nM | 250 nM |  |  |
| CN1C(=O)C2(CC2)c2cc(NC(=O)Nc3ccc(Oc4ccnc(NC(=O)C5CC5)c4)cc3)ccc21 [Exe. 066] | 16 nM | 8 nM | 2500 nM |  |  |
| Cc1cc(Oc2cc(NC(=O)C3CC3)ncn2)ccc1NC(=O)Nc1ccc(F)c(C(C)(F)F)c1 [Exe. 071] | 100 nM | 13.3 nM | 20500 nM |  |  |
| Cc1cc(Oc2cc(NC(=O)C3CC3)ncn2)ccc1NC(=O)Nc1ccc(C)c(C(F)(F)F)c1 [Exe. 072] | 12 nM | 8.9 nM | 7000 nM |  |  |
| Cc1cc(Oc2cc(NC(=O)C3CC3)ncn2)ccc1NC(=O)Nc1cc(Cl)cc(C(F)(F)F)c1 [Exe. 075] | 420 nM | 13.1 nM | 20000 nM |  |  |
| Cc1cc(Oc2cc(NC(=O)C3CC3)ncn2)ccc1NC(=O)Nc1ccc(F)c(OC(F)(F)F)c1 [Exe. 081] | 104 nM | 13.3 nM | 16000 nM |  |  |
| Cc1cc(Oc2cc(NC(=O)C3CC3)ncn2)ccc1NC(=O)Nc1cc(F)cc(C(C)(F)F)c1 [Exe. 083] | 609 nM | 14.3 nM | 20400 nM |  |  |
| Cc1cc(Oc2cc(NC(=O)C3CC3)ncn2)ccc1NC(=O)Nc1cccc(C(C)(F)F)c1 [Exe. 084] | 122 nM | 12.2 nM | 5860 nM |  |  |
| Cc1cc(Oc2cc(NC(=O)C3CC3)ncn2)ccc1NC(=O)Nc1ccc(C#N)c(Cl)c1 [Exe. 086] |  | 8.3 nM |  | 19300 nM | 226 nM |
| Cc1cc(Oc2cc(NC(=O)C3CC3)ncn2)ccc1NC(=O)Nc1cc(N2CCOCC2)cc(C(F)(F)F)c1 [Exe. 087] | 36 nM | 12.9 nM | 5050 nM |  |  |
| O=C(Nc1cc(F)cc(C(F)(F)F)c1)Nc1ccc(Oc2cc(NC(=O)C3CC3)ncn2)cc1Cl [Exe. 090] | 42 nM | 12.2 nM | 2800 nM |  |  |
| Cc1cc(NC(=O)Nc2ccc(F)c(C(F)(F)F)c2)cc(Oc2cc(NC(=O)C3CC3)ncn2)c1 [Exe. 092] | 57 nM | 192 nM | 17200 nM |  |  |
| O=C(Nc1ccc(Oc2cc(NC(=O)C3CC3)ncn2)cc1)Nc1ccc(F)c(C(F)(F)F)c1 [Exe. 100] | 300 nM | 9 nM | 2420 nM |  |  |
| O=C(Nc1cccc(C(F)(F)F)c1)Nc1ccc(Oc2cc(NC(=O)C3CC3)ncn2)c(F)c1 [Exe. 102] | 294 nM | 15 nM | 936 nM |  |  |

Further molecules by falling IC50 (pERK in MDA-MB-231 cells; [2]), results first:

| IC50 (pERK in MDA-MB-231 cells; [2]) | IC50 (KDR kinase (790-1356 AA)) | Structure (SMILES) | IC50 (PLC-PRF-5 cells; [1]) | IC50 (PLC-PRF-5 cells; PLC-PRF-5, read-out: PLC-PRF-5 cell proliferation IC50) | IC50 (pERK in MDA-MB-231 cells; MDA-MB-231, read-out: MDA-MB-231 pERK IC50) |
| --- | --- | --- | --- | --- | --- |
| 752 nM | 105 nM | O=C(Nc1cc(F)cc(Oc2cc(NC(=O)C3CC3)ncn2)c1)Nc1cc(F)cc(C(F)(F)F)c1 [Exe. 098] | 8400 nM |  |  |
| 682 nM | 12.5 nM | O=C(Nc1ccc(Oc2cc(NC(=O)C3CC3)ncn2)cc1)Nc1cc(F)cc(C(F)(F)F)c1 [Exe. 101] | 2600 nM |  |  |
| 337 nM | 17.1 nM | O=C(Nc1cc(NC2CCNCC2)cc(C(F)(F)F)c1)Nc1ccc(Oc2ccnc(NC(=O)C3CC3)c2)c(F)c1 [Exe. 069] | 10500 nM |  |  |
| 324 nM | 34.3 nM | O=C(Nc1cc(C2CCN(C3CC3)CC2)cc(C(F)(F)F)c1)Nc1ccc(Oc2ccnc(NC(=O)C3CC3)c2)c(F)c1 [Exe. 060] | 1510 nM |  |  |
| 169 nM | 14.3 nM | Cc1cc(Oc2cc(NC(=O)C3CC3)ncn2)ccc1NC(=O)Nc1cc(N2CCCC2)cc(C(F)(F)F)c1 [Exe. 077] | 16500 nM |  |  |
| 163 nM | 200 nM | Cc1cc(NC(=O)Nc2cccc(C(F)(F)F)c2)cc(Oc2cc(NC(=O)C3CC3)ncn2)c1 [Exe. 094] | 19000 nM |  |  |
| 137 nM | 62.8 nM | O=C(Nc1cc(F)cc(Oc2cc(NC(=O)C3CC3)ncn2)c1)Nc1ccc(F)c(C(F)(F)F)c1 [Exe. 097] | 9100 nM |  |  |
| 106 nM | 11.4 nM | O=C(Nc1ccc(Oc2cc(NC(=O)C3CC3)ncn2)c(Cl)c1)Nc1ccc(F)c(C(F)(F)F)c1 [Exe. 088] | 2050 nM |  |  |
| 83 nM | 12.5 nM | Cc1cc(Oc2cc(NC(=O)C3CC3)ncn2)ccc1NC(=O)Nc1cc(NC2CCN(C)CC2)cc(C(F)(F)F)c1 [Exe. 076] | 5600 nM |  |  |
| 82 nM | 434 nM | Cc1cc(NC(=O)Nc2cccc(OC(F)(F)F)c2)cc(Oc2cc(NC(=O)C3CC3)ncn2)c1 [Exe. 095] | 19200 nM |  |  |
| 80 nM | 14 nM | Cc1cc(Oc2cc(NC(=O)C3CC3)ncn2)ccc1NC(=O)Nc1cccc(OC(F)(F)F)c1 [Exe. 079] | 6000 nM |  |  |
| 53 nM | 12.8 nM | Cc1cc(Oc2cc(NC(=O)C3CC3)ncn2)c(F)cc1NC(=O)Nc1ccc(Cl)c(C(C)(F)F)c1 [Exe. 091] | 7600 nM |  |  |
| 37 nM | 41 nM | CC(F)(F)c1cc(NC(=O)Nc2cc(F)cc(Oc3cc(NC(=O)C4CC4)ncn3)c2)ccc1Cl [Exe. 099] | 15000 nM |  |  |
| 36 nM | 6.8 nM | Cc1cc(Oc2cc(NC(=O)C3CC3)ncn2)ccc1NC(=O)Nc1ccc(Cl)c(OC(F)(F)F)c1 [Exe. 082] | 22500 nM |  |  |
| 29 nM | 8.1 nM | Cc1cc(Oc2cc(NC(=O)C3CC3)ncn2)ccc1NC(=O)Nc1cc(OC(F)(F)F)ccc1F [Exe. 080] | 3040 nM |  |  |
| 28 nM | 13.3 nM | Cc1cc(Oc2cc(NC(=O)C3CC3)ncn2)ccc1NC(=O)Nc1ccc(NC2CCN(C)CC2)c(C(F)(F)F)c1 [Exe. 078] | 879 nM |  |  |
| 28 nM | 624 nM | Cc1cc(NC(=O)Nc2ccc(Cl)c(C(C)(F)F)c2)cc(Oc2cc(NC(=O)C3CC3)ncn2)c1 [Exe. 096] | 21000 nM |  |  |
| 19 nM | 15.2 nM | O=C(Nc1ccc(F)c(C(F)(F)F)c1)Nc1ccc(Oc2cc(NC(=O)C3CC3)ncn2)cc1Cl [Exe. 089] | 6870 nM |  |  |
| 8.4 nM | 15.7 nM | CC(N)c1cc(NC(=O)Nc2ccc(Oc3ccnc(NC(=O)C4CC4)c3)c(F)c2)cc(C(F)(F)F)c1 (stereo not drawn) [Exe. 068] | 325 nM |  |  |
